# Laboratory results from patent publication US20120165310A1, “ETHER DERIVATIVES OF BICYCLIC HETEROARYLS” (NOVARTIS AG, priority 2009, published 2012).
# Target: T1, IGF-1R (Homo sapiens, UniProt P08069)
# T1 construct: expressed in transfected cells; host or cells: Hek293 (Hek293-IGF1R)
# Test: Cellular IGF-1R assay: capture ELISA (MSD) of receptor phosphorylation in Hek293 cells
# Assay type: cell-based
# Conditions: Hek293-IGF1R cells, 1 h pre-incubation, 10 min IGF stimulation, pIGF1R capture ELISA
# Experimental: (§1) In this assay the activity of the compounds of the invention against Insulin-like growth factor I (IGF-I) induced autophosphorylation of the IGF-IR was determined. The assay was conducted as follows: Compound-mediated inhibition of IGF1R and INSR phosphorylation in Hek293 cells transduced with the corresponding receptors was assessed in a capture ELISA format using the MSD (Meso Scale Discovery) platform. Briefly, 30,000 cells washed and diluted in starvation medium (DMEM high glucose supplemented with 0.1% BSA) were seeded in 90 μL per well into 96-well plates pre-coated with poly-D-lysine (0.1 mg/mL in PBS/O). After 24 h incubation at 37° C. and 5% CO2, dose-response effects were determined with 3-fold serial compound dilutions, starting at 10 μM. The final vehicle concentration is 0.1% DMSO in all wells. Following pre-incubation with compounds for 1 h, receptor phosphorylation was triggered by a 10 min exposure to 1.0 ng/μL IGF for Hek293-IGF1R cells, and 5.0 ng/μL insulin for Hek293-InsR cells. Cell lysis was achieved by addition of 80 μL MSD lysis buffer per aspirated well, incubation on ice for 20 min, and a freeze-thaw cycle. Target phosphorylation was then assessed by transferring volumes corresponding to approx. 6 μg Hek293-IGF1R or 0.6 μg Hek293-InsR lysates to MSD assay plates pre-coated with total-IGF1R or total-InsR Abs, respectively. […] Immune complexes were detected by a SULFO-Tag™-coupled anti-rabbit IgG antibody in the presence of 150 μL MSD read-buffer. Light emission at 620 nm triggered by application of electric current was recorded on a MSD Sectorlmager 6000. Acquired raw data (mean Ru-ECL units) were processed in an Excel analysis template. The plate blank (MSD lysis buffer) was subtracted from all data points. The effect of a particular test compound concentration on receptor phosphorylation was expressed relative to the window defined by ligand-stimulated vs unstimulated control cells (set as 100%). IC50 values [nM] were determined using 4-parametric curve-fitting (XLfit software, V4.3.2).
# as §1, with “Compound-mediated” for “In this assay the activity of the compounds of the invention against Insulin-like growth factor I (IGF-I) induced autophosphorylation of the IGF-IR was determined. The assay was conducted as follows: Compound-mediated”, “cells trans-duced” for “cells transduced”, “receptors were” for “receptors was”, “concentration was” for “concentration is”, “for Hek293-IGF1 R” for “for Hek293-IGF1R”, “with total-IGF1 R” for “with total-IGF1R”
# T1 sequence (P08069 31-1367): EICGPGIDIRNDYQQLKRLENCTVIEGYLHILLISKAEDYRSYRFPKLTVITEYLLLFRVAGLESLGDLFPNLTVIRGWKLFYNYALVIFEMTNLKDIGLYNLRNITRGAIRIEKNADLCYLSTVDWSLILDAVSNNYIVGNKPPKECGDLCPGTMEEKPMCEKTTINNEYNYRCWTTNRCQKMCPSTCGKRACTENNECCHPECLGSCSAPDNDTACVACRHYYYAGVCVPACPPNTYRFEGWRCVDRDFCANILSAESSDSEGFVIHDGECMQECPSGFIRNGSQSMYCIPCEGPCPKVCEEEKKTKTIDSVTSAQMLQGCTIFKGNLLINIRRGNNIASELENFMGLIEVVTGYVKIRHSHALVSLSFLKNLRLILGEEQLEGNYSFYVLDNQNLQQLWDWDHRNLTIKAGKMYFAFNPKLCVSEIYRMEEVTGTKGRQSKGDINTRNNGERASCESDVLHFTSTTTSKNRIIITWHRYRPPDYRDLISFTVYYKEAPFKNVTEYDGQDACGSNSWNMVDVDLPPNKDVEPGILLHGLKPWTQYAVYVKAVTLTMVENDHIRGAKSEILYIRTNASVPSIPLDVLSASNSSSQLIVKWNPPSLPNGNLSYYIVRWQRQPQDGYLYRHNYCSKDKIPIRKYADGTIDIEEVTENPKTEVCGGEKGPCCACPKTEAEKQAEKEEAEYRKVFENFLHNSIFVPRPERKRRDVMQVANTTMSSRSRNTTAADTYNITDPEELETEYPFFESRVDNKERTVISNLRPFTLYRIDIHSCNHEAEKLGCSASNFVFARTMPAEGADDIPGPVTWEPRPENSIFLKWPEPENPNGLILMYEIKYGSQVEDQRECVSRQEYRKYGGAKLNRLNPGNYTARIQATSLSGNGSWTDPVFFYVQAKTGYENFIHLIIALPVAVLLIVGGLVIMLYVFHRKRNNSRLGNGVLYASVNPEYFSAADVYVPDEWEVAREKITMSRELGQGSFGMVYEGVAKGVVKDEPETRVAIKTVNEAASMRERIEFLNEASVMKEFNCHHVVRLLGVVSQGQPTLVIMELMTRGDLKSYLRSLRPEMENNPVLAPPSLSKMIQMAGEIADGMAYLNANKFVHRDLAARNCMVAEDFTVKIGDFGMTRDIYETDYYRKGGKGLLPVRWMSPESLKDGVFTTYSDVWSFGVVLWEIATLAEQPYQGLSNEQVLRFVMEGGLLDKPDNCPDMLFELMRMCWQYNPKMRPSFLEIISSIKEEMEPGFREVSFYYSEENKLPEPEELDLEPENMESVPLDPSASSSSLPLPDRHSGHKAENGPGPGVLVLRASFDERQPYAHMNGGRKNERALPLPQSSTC
row,Structure (SMILES),IC50
1,"CN1CCN([C@H]2C[C@@H](n3cc(-c4cccc(OCC56CCC(CC5)O6)c4)c4c(N)ncnc43)C2)CC1=O (relative stereo) [Example 195, cis-4-(3-{4-Amino-5-[3-(7-oxa-bicyclo[2.2.1]hept-1-ylmethoxy)-phenyl]-pyrrolo[2,3-d]pyrimidin-7-yl}-cyclobutyl)-1-methyl-piperazin-2-one]",385 nM
2,"CCC(=O)NCC1CC(n2cc(-c3cccc(OCC45CCC(CC4)O5)c3)c3c(N)ncnc32)C1 (centres unmarked) [Example 162, N-(3-{4-amino-5-[3-(7-oxa-bicyclo[2.2.1]hept-1-ylmethoxy)-phenyl]-pyrrolo[2,3-d]pyrimidin-7-yl}-cyclobutylmethyl)-propionamide]",101 nM
3,"NC(=O)[C@H]1[C@@H](O)CCN1C[C@H]1C[C@@H](n2cc(-c3cccc(OCC4CCCCO4)c3)c3c(N)ncnc32)C1 (stereo partly drawn) [Example 56, (2R,3S)-1-(cis-3-{4-amino-5-[3-(tetrahydro-pyran-2-ylmethoxy)-phenyl]-pyrrolo[2,3d]pyrimidin-7-yl}-cyclobutylmethyl)-3-hydroxy-pyrrolidine-2-carboxylic acid amide]",97 nM
4,"Nc1ncnc2c1c(-c1cccc(OCC34CCC(CC3)O4)c1)cn2[C@H]1CC[C@@H](Cn2ccnc2)CC1 [Example 148, 7-((1S,4S)-4-((1H-imidazol-1-yl)methyl)cyclohexyl)-5-(3-(7-oxabicyclo[2.2.1]heptan-1-ylmethoxy)phenyl)-7H-pyrrolo[2,3-d]pyrimidin-4-amine]",247 nM
5,"CC1(C)CCC(COc2cccc(-c3cn([C@H]4CC[C@@H](N5CCOCC5)CC4)c4ncnc(N)c34)c2)O1 (relative stereo) [Example 65, 5-[3-(5,5-dimethyl-tetrahydro-furan-2-ylmethoxy)-phenyl]-7-(cis-4-morpholin-4-yl-cyclohexyl)-7H-pyrrolo[2,3-d]pyrimidin-4-ylamine]",128 nM
6,"Cc1cccc(NC[C@H]2C[C@@H](n3cc(-c4cccc(OCC56CCC(CC5)O6)c4)c4c(N)ncnc43)C2)n1 (relative stereo) [Example 194, 7-{cis-3-[(6-Methyl-pyridin-2-ylamino)-methyl]-cyclobutyl}-5-[3-(7-oxa-bicyclo[2.2.1]hept-1-ylmethoxy)-phenyl]-7H-pyrrolo[2,3-d]pyrimidin-4-ylamine]",83 nM
7,"Cc1nccn1C[C@H]1C[C@@H](n2cc(-c3cccc(OCC4CCCCO4)c3)c3c(N)ncnc32)C1 (relative stereo) [Example 154, 7-[cis-3-(2-methyl-imidazol-1-ylmethyl)-cyclobutyl]-5-[3-(tetrahydro-pyran-2-ylmethoxy)-phenyl]-7H-pyrrolo[2,3-d]pyrimidin-4-ylamine]",71 nM
8,"Nc1ncnc2c1c(-c1cccc(OC[C@@H]3CCCO3)c1)cn2[C@H]1C[C@@H](N2CC[S+]([O-])CC2)C1 [Example 234, 7-[cis-3-(1-oxo-thiomorpholin-4-yl)-cyclobutyl]-5-{3-[(S)-1-(tetrahydro-furan-2-yl)methoxy]-phenyl}-7H-pyrrolo[2,3-d]pyrimidin-4-ylamine]",309 nM
9,"Nc1ncnc2c1c(-c1cccc(OCC34CCC(CC3)O4)c1)cn2[C@H]1C[C@@H](CN2C(=O)c3ccccc3C2=O)C1 [Example 108, 2-(((1S,3S)-3-(5-(3-(7-oxabicyclo[2.2.1]heptan-1-ylmethoxy)phenyl)-4-amino-7H-pyrrolo[2,3-d]pyrimidin-7-yl)cyclobutyl)methyl)isoindoline-1,3-dione]",327 nM
10,"NC(=O)[C@@H]1[C@@H](O)CCN1C[C@H]1C[C@@H](n2cc(-c3cccc(OCC4CCCCO4)c3)c3c(N)ncnc32)C1 (stereo partly drawn) [Example 35, (2S,3S)-1-(cis-3-{4-amino-5-[3-(tetrahydro-pyran-2-ylmethoxy)-phenyl]-pyrrolo[2,3-d]pyrimidin-7-yl}-cyclobutylmethyl)-3-hydroxy-pyrrolidine-2-carboxylic acid amide]",41 to 103 nM
11,"NC(=O)C1CC(F)CN1CC1CC(n2cc(-c3cccc(OCC4CCCCO4)c3)c3c(N)ncnc32)C1 [Example 94, (2S,4R)-1-(((1 S,3R)-3-(4-amino-5-(3-((tetrahydro-2H-pyran-2-yl)methoxy)phenyl)-7H-pyrrolo[2,3-d]pyrimidin-7-yl)cyclobutyl)methyl)-4-fluoropyrrolidine-2-carboxamide]",85 nM
12,"Nc1ncnc2c1c(-c1cccc(OCC34CCC(CC3)O4)c1)cn2[C@H]1CC[C@H](N2CC[C@@H](F)C2)CC1 [Example 125, 5-(3-(7-oxabicyclo[2.2.1]heptan-1-ylmethoxy)phenyl)-7-((1R,4S)-4-((R)-3-fluoropyrrolidin-1-yl)cyclohexyl)-7H-pyrrolo[2,3-d]pyrimidin-4-amine]",419 nM
13,"Nc1ncnc2c1c(-c1cccc(OCC34CCC(CC3)O4)c1)cn2[C@H]1C[C@@H](O)C1 (relative stereo) [Example 221, cis-3-{4-amino-5-[3-(7-oxa-bicyclo[2.2.1]hept-1-ylmethoxy)-phenyl]-pyrrolo[2,3-d]pyrimidin-7-yl}cyclobutanol]",411 nM
14,"NC(=O)[C@H]1CCCN1C[C@H]1C[C@@H](n2cc(-c3cccc(OCC4CCCCO4)c3)c3c(N)ncnc32)C1 (stereo partly drawn) [Example 29, (R)-1-(cis-3-{4-amino-5-[3-(tetrahydro-pyran-2-ylmethoxy)-phenyl]-pyrrolo[2,3-d]pyrimidin-7-yl}-cyclobutylmethyl)-pyrrolidine-2-carboxylic acid amide]",149 to 152 nM

# Further molecules by falling IC50, results first:
row,IC50,Structure (SMILES)
1,69 nM,"CN1CCN(C[C@]2(O)C[C@@H](n3cc(-c4cccc(OCC56CCC(CC5)O6)c4)c4c(N)ncnc43)C2)CC1 [Example 123, (Z)-3-{4-Amino-5-[3-(7-oxa-bicyclo[2.2.1]hept-1-ylmethoxy)-phenyl]-pyrrolo[2,3-d]pyrimidin-7-yl}-1-(4-methyl-piperazin-1-ylmethyl)-cyclobutanol]"
2,54 nM,"Nc1ncnc2c1c(-c1cccc(OCC34CCC(CC3)O4)c1)cn2[C@H]1CC[C@@H](NC(=O)C2CCC2)CC1 [Example 142, N-((1S,4S)-4-(5-(3-(7-oxabicyclo[2.2.1]heptan-1-ylmethoxy)phenyl)-4-amino-7H-pyrrolo[2,3-d]pyrimidin-7-yl)cyclohexyl)cyclobutanecarboxamide]"
3,53 nM,"CC1(C)CCC(COc2cccc(-c3cn([C@H]4C[C@@H](CN5CCC[C@@H]5C(N)=O)C4)c4ncnc(N)c34)c2)O1 (stereo partly drawn) [Example 51, (R)-1-(cis-3-{4-amino-5-[3-(5,5-dimethyl-tetrahydro-furan-2-ylmethoxy)-phenyl]-pyrrolo[2,3-d]pyrimidin-7-yl}-cyclobutylmethyl)-pyrrolidine-2-carboxylic acid amide]"
4,25 nM,Nc1ncnc2c1c(-c1cccc(OCC34CCC(CC3)O4)c1)cn2[C@H]1CC[C@@H](CN2CC[C@@H](O)C2)CC1 [Example 124]
5,13 nM,"CC1(C)CCC(COc2cccc(-c3cn([C@H]4C[C@H](CN5CC[C@@H](O)[C@H]5C(N)=O)C4)c4ncnc(N)c34)c2)O1 (stereo partly drawn) [Example 80, (2S,3R)-1-(trans-3-(4-amino-5-[3-(5,5-dimethyl-tetrahydro-furan-2-ylmethoxy)-phenyl]-pyrrolo[2,3-d]pyrimidin-7-yl}-cyclobutylmethyl)-3-hydroxy-pyrrolidine-2-carboxylic acid amide]"
6,9 nM,"Nc1ncnc2c1c(-c1cccc(OCC34CCC(CC3)O4)c1)cn2[C@H]1C[C@@H](CN2CCC(O)CC2)C1 (relative stereo) [Example 184, 1-(cis-3-{4-Amino-5-[3-(7-oxa-bicyclo[2.2.1]hept-1-ylmethoxy)-phenyl]-pyrrolo[2,3-d]pyrimidin-7-yl}-cyclobutylmethyl)-piperidin-4-ol]"
